Source: EP4796536A1, “CRYSTAL FORMS OF COMPOUND HAVING FUSED FIVE- AND SIX-MEMBERED RINGS, PREPARATION METHOD THEREFOR, AND USE THEREOF” (Hangzhou Polymed Biopharmaceuticals, Inc., priority 2023, dated 2025)
≈ marks a conversion by molar mass, not a printed value. Read-outs that look alike come from different tables or passages of the source.

How the values were obtained:
[1] = Solubility of crystal forms in buffers, biorelevant media and water (HPLC, XRPD of residual solid); format: physicochemical; conditions: for pH (24 h): 5 mg/mL suspension stirred at 37°C, pH of the solution at 24 h; for Solubility at 37°C (mg/mL) 2 h: 120 min; for Solubility at 37°C (mg/mL) 2 h / Solubility at 37°C (mg/mL) 24 h / solubility at 2 h / solubility at 24 h: 37°C; for solubility at 2 h: read-out: Solubility at 37°C (mg/mL) 2 h; for solubility at 24 h: read-out: Solubility at 37°C (mg/mL) 24 h
Experimental: The solubility of the two crystal forms at 2 hours and 24 hours and the pH of the solution at 24 hours were tested. The solid was filtered, and the resulting solid was tested for XRPD.

[2] = Hygroscopicity by dynamic vapor sorption (DVS); format: physicochemical
Experimental: Samples are analyzed for hygroscopicity using Intrinsic DVS ([…], UK). Approximately 10 to 30 mg of sample is used for testing. The testing chamber is controlled at a temperature of 25 ± 1°C with the specific testing parameters shown below: […]

[3] = Physicochemical stability of crystal forms (HPLC purity, XRPD)
[4] = Mechanical stability: dry grinding, wet grinding, tableting (XRPD); format: physicochemical
Experimental: Dry grinding: approximately 10 mg of the starting sample was ground for 3 minutes in a mortar, and then subjected to XRPD testing.
Wet grinding: approximately 10 mg of the starting sample was ground with 1 to 2 drops of solvent for 3 minutes in a mortar, and then subjected to XRPD testing.
Tableting experiment: approximately 10 mg of the starting sample was compressed at 20 MPa for 3 minutes, and then subjected to XRPD testing.

[5] = Dry grinding, 3 minutes in a mortar, no solvent
[6] = Tableting, 20 MPa for 3 minutes, solvent EA
[7] = Wet grinding, solvent EtOH, 3 minutes in a mortar
[8] = Wet grinding, solvent Water, 3 minutes in a mortar

## COc1cc2nn(C3CC4(CCN(C(=O)C5CCN(c6ccc7c(c6)C(=O)N(C6CCC(=O)NC6=O)C7=O)CC5)CC4)C3)cc2cc1NC(=O)c1cccc(C(F)(F)F)n1 (single isomer, unassigned) [crystal form I]
[1]; FaSSIF
  pH (24 h): 6.501
  Solubility at 37°C (mg/mL) 2 h: 0.00141 mg/mL (≈ 1.71 µM)
[1]; FeSSIF, stirring at 37°C for 24 hours, 1440 min
  solubility: approximately 0.01 mg/mL
[1]; FeSSIF
  pH (24 h): 5.085
[1]; FeSSIF, 1440 min
  Solubility at 37°C (mg/mL) 24 h: 0.01099 mg/mL (≈ 13.3 µM)
[1]; SGF
  pH (24 h): 1.266
[1]; Water
  pH (24 h): 6.749
  Solubility at 37°C (mg/mL) 2 h: 0.00089 mg/mL (≈ 1.08 µM)
[1]; Water, 1440 min
  Solubility at 37°C (mg/mL) 24 h: 0.00025 mg/mL (≈ 0.302 µM)
[1]; XRPD of residual solid after stirring in FaSSIF at 37°C for 24 hours
  Crystal form: Crystal form I
[1]; XRPD of residual solid after stirring in FeSSIF at 37°C for 24 hours
  Crystal form: Crystal form I
[1]; XRPD of residual solid after stirring in SGF at 37°C for 24 hours
  Crystal form: Crystal form I
[1]; XRPD of residual solid after stirring in Water at 37°C for 24 hours
  Crystal form: Crystal form I
[1]; XRPD of residual solid after stirring in pH 1.2 buffer at 37°C for 24 hours
  Crystal form: Crystal form I
[1]; XRPD of residual solid after stirring in pH 3.0 buffer at 37°C for 24 hours
  Crystal form: Crystal form I
[1]; XRPD of residual solid after stirring in pH 4.5 buffer at 37°C for 24 hours
  Crystal form: Crystal form I
[1]; XRPD of residual solid after stirring in pH 6.8 buffer at 37°C for 24 hours
  Crystal form: Crystal form I
[1]; XRPD of residual solid after stirring in pH 7.4 buffer at 37°C for 24 hours
  Crystal form: Crystal form I
[1]; buffer, pH 1.2, pH 1.2 buffer
  solubility at 2 h: 0.00084 mg/mL (≈ 1.02 µM)
  solubility at 24 h: 0.00081 mg/mL (≈ 0.98 µM)
[1]; buffer, pH 3, pH 3.0 buffer
  solubility at 2 h: 0.00048 mg/mL (≈ 0.581 µM)
  solubility at 24 h: 0.00077 mg/mL (≈ 0.931 µM)
[1]; buffer, pH 4.5, pH 4.5 buffer
  solubility at 2 h: 0.00019 mg/mL (≈ 0.23 µM)
  solubility at 24 h: 0.00087 mg/mL (≈ 1.05 µM)
[1]; buffer, pH 6.8, pH 6.8 buffer
  solubility at 2 h: 0.00046 mg/mL (≈ 0.556 µM)
  solubility at 24 h: 0.00084 mg/mL (≈ 1.02 µM)
[1]; buffer, pH 7.4, pH 7.4 buffer
  solubility at 2 h: 0.00101 mg/mL (≈ 1.22 µM)
  solubility at 24 h: 0.00079 mg/mL (≈ 0.955 µM)
[1]; fassif
  solubility at 24 h: 0.00148 mg/mL (≈ 1.79 µM)
[1]; fessif
  solubility at 2 h: 0.004 mg/mL (≈ 4.84 µM)
[1]; pH 1.2 buffer
  pH (24 h): 1.234
[1]; pH 3.0 buffer
  pH (24 h): 3.145
[1]; pH 4.5 buffer
  pH (24 h): 4.583
[1]; pH 6.8 buffer
  pH (24 h): 6.805
[1]; pH 7.4 buffer
  pH (24 h): 7.439
[1]; sgf
  solubility at 2 h: 0.00158 mg/mL (≈ 1.91 µM)
  solubility at 24 h: 0.00376 mg/mL (≈ 4.55 µM)
[2]; 80% RH, 25°C
  hygroscopic weight gain: 0.3629%
[2]; DVS, based on weight gain at 80% RH
  hygroscopicity evaluation: slightly hygroscopic
[2]; after DVS testing
  crystal form after DVS testing: no change in the crystal form
[3]; 25°C/60% RH, open, 1 week
  Purity (%): 98.96%
  XRPD: Unchanged
[3]; 40°C/75% RH, open, 1 week
  Purity (%): 98.96%
  XRPD: Unchanged
[3]; 60°C, closed, 1 week
  Purity (%): 98.80%
  XRPD: Unchanged
[3]; Initial
  Purity (%): 98.97%
[3]; Light, closed, 10 days
  Purity (%): 98.96%
  XRPD: Unchanged
[3]; Light, control, 10 days
  Purity (%): 98.97%
  XRPD: Unchanged
[3]; all stability conditions
  change in the crystal form after stability testing: no change in the crystal form
[3]; closed stability chamber at 60°C for 1 week
  degradation: 0.17%
[3]; other stability conditions (25°C/60% RH, 40°C/75% RH 1 week; light 10 days)
  degradation: no significant degradation
[4]; [5]
  Solid color: Yellow, essentially no change
  XRPD results: Crystal form I (low degree of crystallinity)
[4]; [6]
  Solid color: Yellow, essentially no change
  XRPD results: Crystal form I
[4]; [7]
  Solid color: Yellow, essentially no change
  XRPD results: Crystal form I
[4]; [8]
  Solid color: Yellow, essentially no change
  XRPD results: Crystal form I
[4]; after dry grinding
  degree of crystallinity of the solid: reduction in the degree of crystallinity
[4]; after dry grinding, wet grinding, and tableting
  crystal form of the solid (XRPD): no change in the crystal form
[4]; after grinding and tableting experiments, versus starting sample
  Solid color: essentially no change in the solid color
[4]; after wet grinding and tableting
  degree of crystallinity of the solid: almost no change in the degree of crystallinity
